We go through 43 molecules from ChEMBL document CHEMBL2069226, “N-Aryl pyrrolidinonyl oxadiazoles as potent mGluR5 positive allosteric modulators” (Bioorg Med Chem Lett, 2012).

Converted amounts (≈) assume the structure as drawn.

For orientation: IC50 means the point on the concentration scale where inhibition reaches its midpoint. The term EC50 denotes the concentration giving half of the maximal effect. In general, Emax refers to the size of the effect at its maximum, as opposed to the concentration needed. For orientation: inhibition means the change of the read-out against control, counted positive when it falls. A word on the solubility: it is the concentration that dissolves in the medium under given conditions.

In data set [1] the target is T1, Metabotropic glutamate receptor 5 (Homo sapiens, UniProt P41594). Description: Negative allosteric modulation of human mGluR5 expressed in HEK293A cells assessed as inhibition of glutamate-induced calcium flux by FLIPR method. It is filed as functional, cell-based, HEK293-A. Conditions: for inhibition: HEK293-A, concentration not given here. Background: Calcium flux is commonly read through the fluorescence of an indicator in the cells.

For data set [2], the target named is T1, Metabotropic glutamate receptor 5. As to the kind of experiment: Positive allosteric modulation of human mGluR5 expressed in HEK293A cells assessed as stimulation of glutamate-induced calcium flux by FLIPR method. It is filed as functional, cell-based, HEK293-A. The conditions noted are these: for Emax: HEK293-A.
The nature of data set [3]: Solubility of the compound in […] by UPLC method. It is filed as physicochemical.

With `Cc1ccc(N2CC(c3nc(-c4cccc(Cl)c4)no3)CC2=O)cc1C` (stereo not drawn), the IC50 in data set [1] is greater than 10 µM. Further, in data set [2], the EC50 was found to be 0.31 µM and the Emax was 57%.
For the molecule `O=C1CC(c2nc(-c3cccc(F)c3)no2)CN1c1ccc(F)cc1` (stereo not drawn), in data set [2], the EC50 was 0.088 µM and the Emax was found to be 140%.
`Cc1cccc(-c2noc(C3CC(=O)N(c4ccc(C)c(Cl)c4)C3)n2)c1` (stereo not drawn): in data set [2], the EC50 was determined as 0.24 µM and the Emax was determined as 90%.
For `O=C1CCc2ccc(Cl)cc2N1CCc1nc(-c2cccc(Cl)c2)no1`, in data set [1], the IC50 stood at 0.55 µM and the inhibition was 82%. In data set [2], the EC50 was greater than 10 µM and the Emax is -29%.
The matching figures for `Cc1ccccc1N1CC(c2nc(-c3cccc(Cl)c3)no2)CC1=O` (stereo not drawn): 0.37 µM, 91%, greater than 10 µM and -29%.
Take `Cc1cccc(-c2noc(C3CC(=O)N(c4ccc(Cl)cc4)C3)n2)c1` (stereo not drawn): in data set [2], the EC50 is 0.17 µM and the Emax is 1.6%.
The matching figures for `O=C1CC(c2nc(-c3cccc(F)c3)no2)CN1c1ccc(Cl)cc1` (stereo not drawn): 0.63 µM and 120%.
Consider `O=C1CC(c2nc(-c3ccccc3)no2)CN1c1ccccc1` (stereo not drawn), for which, in data set [2], the EC50 came out at 0.35 µM and the Emax is 42%.
The molecule `CC(C)N1CC(c2nc(-c3cccc(Cl)c3)no2)CC1=O` (stereo not drawn) displayed a solubility in data set [3] of 23 µM (≈ 7.03 µg/mL).
Regarding `CC(C)CN1CC(c2nc(-c3cccc(Cl)c3)no2)CC1=O` (stereo not drawn), in data set [1], the IC50 was 0.92 µM. Also, the concentration in solution in data set [3] (solubility) was 23 µM (≈ 7.36 µg/mL).
`O=C1CC(c2nc(-c3cccc(C(F)(F)F)c3)no2)CN1c1ccc(F)cc1` (stereo not drawn): in data set [2], the EC50 was greater than 10 µM and the Emax turned out to be 25%.
Taken in the same sequence, the figures for `O=C1CC(c2nc(-c3ccc(F)cc3)no2)CN1c1ccc(Cl)cc1` (stereo not drawn) were 1.7 µM and 33%.
With `O=C1CC(c2nc(-c3ccccn3)no2)CN1c1ccc(F)cc1` (stereo not drawn), in data set [2], the EC50 is greater than 10 µM and the Emax was -41%. The solubility in data set [3] was 26 µM (≈ 8.43 µg/mL).
Turning to `O=C1CC(c2nc(-c3cccc(Cl)c3)no2)CN1c1cccc(Cl)c1` (stereo not drawn), in data set [1], the IC50 worked out at 1.1 µM and the inhibition is 68%. Besides, in data set [2], the EC50 was greater than 10 µM and the Emax is -18%.
Regarding `COc1ccccc1N1CC(c2nc(-c3cccc(Cl)c3)no2)CC1=O` (stereo not drawn), in data set [1], the IC50 was found to be 0.63 µM and the inhibition was determined as 93%. Also, in data set [2], the EC50 was greater than 10 µM and the Emax is -31%.
For `Cc1cccc(-c2noc(C3CC(=O)N(c4ccc(Cl)cc4)C3)n2)n1` (stereo not drawn), in data set [2], the EC50 was greater than 10 µM and the Emax was 1%. The same molecule yielded a solubility in data set [3] of 26 µM (≈ 9.22 µg/mL).
For `O=C1CC(c2nc(-c3cccc(Cl)c3)no2)CN1c1ccc(Cl)c(Cl)c1` (stereo not drawn), in data set [1], the IC50 is greater than 10 µM and the inhibition came out at 8.3%. In data set [2], the EC50 came out at 0.46 µM and the Emax was determined as 51%.
`Cc1ccc(N2CC(c3nc(-c4cccc(F)c4)no3)CC2=O)cc1` (stereo not drawn): in data set [2], the EC50 turned out to be 1.2 µM and the Emax came to 130%.
Consider `Cc1cccc(N2CC(c3nc(-c4cccc(Cl)c4)no3)CC2=O)c1` (stereo not drawn), for which, in data set [1], the IC50 stood at 2.3 µM and the inhibition was 85%. Moreover, in data set [2], the EC50 is greater than 10 µM and the Emax was 28%.
Take `O=C1CC(c2nc(-c3cccc(Cl)c3)no2)CN1c1ccc(F)cc1` (racemic): in data set [2], the Emax came to 55%.
`COc1cccc(-c2noc(C3CC(=O)N(c4ccc(Cl)cc4)C3)n2)c1` (stereo not drawn): in data set [2], the EC50 came to 4.8 µM and the Emax was determined as 50%.
Taken in the same sequence, the figures for `Cc1cccc(-c2noc(C3CC(=O)N(c4ccc(Cl)c(Cl)c4)C3)n2)c1` (stereo not drawn) were 0.39 µM and 65%.
The matching figures for `COc1cccc(-c2noc(C3CC(=O)N(c4ccc(F)cc4)C3)n2)c1` (stereo not drawn): 1.1 µM and 48%.
The matching figures for `O=C1CC(c2nc(-c3ccc(Cl)cc3)no2)CN1c1ccc(Cl)c(Cl)c1` (stereo not drawn): 1.1 µM and 44%.
Take `O=C1CC(c2nc(-c3cccc(Cl)c3)no2)CN1c1ccccc1F` (stereo not drawn): in data set [1], the IC50 came out at 1.1 µM and the inhibition is 89%. Further, in data set [2], the EC50 was greater than 10 µM and the Emax is -29%.
Taken in the same sequence, the figures for `O=C1COc2ccccc2N1CCc1nc(-c2cccc(Cl)c2)no1` were 0.8 µM, 88%, greater than 10 µM and -29%.
With `Cc1ccc(N2CC(c3nc(-c4cccc(C(F)(F)F)c4)no3)CC2=O)cc1` (stereo not drawn), in data set [2], the concentration giving a half-maximal response (EC50) came to 3.4 µM and the Emax stood at 32%.
As to `COc1cccc(N2CC(c3nc(-c4cccc(Cl)c4)no3)CC2=O)c1` (stereo not drawn), in data set [1], the IC50 came out at 0.69 µM and the inhibition was 92%. Further, in data set [2], the EC50 is greater than 10 µM and the Emax was -37%.
Turning to `O=c1oc2ccccc2n1Cc1nc(-c2cccc(Cl)c2)no1`, in data set [1], the IC50 stood at 2.1 µM and the inhibition came to 50%. For the same molecule, in data set [2], the EC50 was greater than 10 µM and the Emax amounted to 4%.
Taken in the same sequence, the figures for `O=C1CC(c2nc(-c3cccc(Cl)c3)no2)CN1c1ccccc1Cl` (stereo not drawn) were 0.68 µM, 93%, greater than 10 µM and -31%.
As to `O=c1sc2ccccc2n1Cc1nc(-c2cccc(Cl)c2)no1`, in data set [1], the IC50 is 1.1 µM and the inhibition turned out to be 71%. Moreover, in data set [2], the 50% effective concentration (EC50) was greater than 10 µM and the Emax was 7%.
`O=C1CC(c2nc(-c3ccccc3)no2)CN1c1ccc(F)cc1` (stereo not drawn): in data set [2], the EC50 was 0.058 µM and the Emax is 130%.
As to `Cc1cccc(-c2noc(C3CC(=O)N(c4ccc(F)cc4)C3)n2)c1` (racemic), the Emax in data set [2] stood at 78%.
As to `O=C1CC(c2nc(-c3ccc(F)cc3)no2)CN1c1ccc(Cl)c(Cl)c1` (stereo not drawn), in data set [2], the EC50 is 2.3 µM and the Emax turned out to be 44%.
Take `COc1ccc(N2CC(c3nc(-c4cccc(Cl)c4)no3)CC2=O)cc1` (stereo not drawn): in data set [1], the IC50 was 3.52 µM and the inhibition came out at 2%. In data set [2], the EC50 is greater than 10 µM and the Emax turned out to be 47%.
In turn, `O=C1CC(c2nc(Cc3ccccc3)no2)CN1c1ccc(F)cc1` (stereo not drawn) gave a solubility in data set [3] of 23 µM (≈ 7.76 µg/mL).
In the case of `Cc1ccc(N2CC(c3nc(-c4ccccc4)no3)CC2=O)cc1` (stereo not drawn), in data set [2], the EC50 was 0.384 µM and the Emax worked out at 41%.
As for `O=C1COc2ccccc2N1Cc1nc(-c2cccc(Cl)c2)no1`, in data set [1], the IC50 stood at 0.77 µM and the inhibition is 84%. Also, in data set [2], the EC50 is greater than 10 µM and the Emax is -28%.
For `Cc1ccc(N2CC(c3nc(-c4cccc(C)c4)no3)CC2=O)cc1` (stereo not drawn), in data set [2], the EC50 came out at 1.3 µM and the Emax was 150%.
Turning to `Cc1cccc(-c2noc(C3CC(=O)N(c4ccc(F)cc4)C3)n2)n1` (stereo not drawn), in data set [2], the EC50 is greater than 10 µM and the Emax was -15%. In data set [3], this molecule registered a solubility of 26 µM (≈ 8.8 µg/mL).
For `O=C1CC(c2nc(-c3cccc(Cl)c3)no2)CN1c1ccc(Cl)cc1` (stereo not drawn), in data set [1], the IC50 was greater than 10 µM and the inhibition was found to be 44%. For the same molecule, in data set [2], the EC50 is 0.14 µM and the Emax was determined as 67%.
With `O=C1CC(c2nc(-c3cccc(F)c3)no2)CN1c1ccc(Cl)c(Cl)c1` (stereo not drawn), in data set [2], the half-maximal effective concentration (EC50) worked out at 3.2 µM and the Emax came to 140%.
On to `Cc1ccc(N2CC(c3nc(-c4cccc(Cl)c4)no3)CC2=O)cc1` (stereo not drawn), for which, in data set [1], the IC50 was greater than 10 µM and the inhibition is -2.5%. Further, in data set [2], the concentration giving a half-maximal response (EC50) turned out to be 0.63 µM and the Emax was 69%.
